Data on 3 compounds can be found in PMC5057104, “The unravelling of the complex pattern of tyrosinase inhibition” (Scientific Reports, 2016).

The term IC50 denotes the midpoint of a concentration-inhibition curve. By Vmax is commonly meant the top rate of the reaction or transport when substrate is in excess. A word on the Kd: it is the equilibrium constant for the complex coming apart. For orientation: Ki means the dissociation constant of the complex between target and ligand, obtained from inhibition or displacement. For orientation: Km means the substrate concentration at which the rate is half of its maximum.

The target in experiment [1] is T1, TyrBm (tyrosinase from Bacillus megaterium) (Priestia megaterium, UniProt B2ZB02).
T1 sequence (B2ZB02 1-297): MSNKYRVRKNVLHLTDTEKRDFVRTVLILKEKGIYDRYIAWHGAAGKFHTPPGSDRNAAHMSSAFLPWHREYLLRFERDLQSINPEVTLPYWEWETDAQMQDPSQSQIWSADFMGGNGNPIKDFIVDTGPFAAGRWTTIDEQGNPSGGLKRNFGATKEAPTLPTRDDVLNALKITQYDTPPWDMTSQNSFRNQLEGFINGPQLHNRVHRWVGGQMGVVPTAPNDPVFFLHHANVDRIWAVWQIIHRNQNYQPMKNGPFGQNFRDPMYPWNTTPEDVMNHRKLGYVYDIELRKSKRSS
As to the kind of experiment: biochemical.
Method: Tyrosinase inhibitory activity was determined spectrophotometrically in 96-well plates with a final volume of 200 μl. First, 50 mM PBS buffer pH 7.4 and 0.01 mM CuSO4 were mixed with 6 μg ml^−1 of purified enzyme. Then, the mixture was incubated at 40 °C for 2 minutes. […] Specific activity was calculated as the ratio of the conversion rate and the total protein content as determined by the Bradford analysis method (Bio-Rad, Israel). All measurements were performed in seven replicates.

Experiment [2] deals with T1, TyrBm (tyrosinase from Bacillus megaterium). The procedure: The formation of HBP was monitored by measuring the absorbance at 475 nm[26].
Batel Deria,§, Margarita Kanteeva,§, Mor Goldfedera, Daniel Lecinab, Victor Guallarb,c,
Noam Adird, and Ayelet Fishmana,†
presence of reducing agents measured at 475 nm.
increasing concentrations of L-dopa (0-3 mM).
as the substrate in the presence of increasing concentrations of H2O2 (0-90 mM).
reactions contained 6 µg ml-1 of purified TyrBm, 50 mM PBS buffer pH 7.4 and 0.01 mM
(§1) (1 picture or pasted object on this page, not shown here)

The target is the same in experiment [3]. As to the kind of experiment: biochemical. The format is binding. Set-up: made in house; host or cells: Escherichia coli BL21. The procedure: TyrBm was labeled fluorescently with a RED dye (NT-647-NHS) according to the manufacturer’s protocol (NanoTemper Technologies, Munich, Germany). Non-bound dye was removed by purification of the enzyme on a Sephadex G-25 column with buffers provided in the commercial kit. […] Approximately 10 μl of sample was loaded into hydrophilic monolith NT capillaries and the measurement was performed in a NanoTemper Monolith NT.015T instrument. The emission of the red fluorescence was recorded at a focused location of the capillary. In the same location, a microscopic temperature gradient was created using an infrared laser and the fluorescence depletion was measured. According to changes in the fluorescent thermophoresis signal and the concentrations of unlabeled inhibitor, the dissociation constant values were determined by the NanoTemper analysis software.
(b) Titration of rising concentrations of
(c) Titration of rising concentrations of L-tyrosine (0-
The reactions contained constant concentration of TyrBm
as §1

Another experiment deals with mushroom tyrosinase. The settings on record: cited from earlier work.
In experiment [4] the target is T1, TyrBm (tyrosinase from Bacillus megaterium). The settings on record: 1 mM L-dopa. On the procedure: Measurements were carried out using a Hansatech Oxygraph+ electrode (Norfolk, UK) in a reaction volume of 1000 μL.
(a) Spectrophotometric recordings measured at 475 nm. All measurements were performed in heptaplicates. (b) Oxygen consumption recordings. The inset presents the oxygen […]
measurements were performed in triplicates. The reactions contained 4 µg ml-1 of purified […]
The slopes representing the activity rate are given for each graph.
as §1

For experiment [5] the target is unchanged. As to the kind of experiment: Kinetic analysis of tyrosinase (Lineweaver-Burk plots). The format is biochemical. Set-up: made in house; host or cells: Escherichia coli BL21. On the procedure: All measurements were performed in seven replicates.
The inhibitor concentrations were mentioned above. The inhibition kinetics module of Sigma Plot 13.0 software was used (Systat Software, Inc., Richmond, CA, USA). All measurements were performed in 5-replicates.

The test system of experiment [6] is Agaricus bisporus tyrosinase. The settings on record: HQ as substrate; cited from earlier work.

Several values for one entry are separate records, joined by “and”; a condition that tells them apart may be missing. Equal entries are not always repeated. Entries after “also recorded” stand apart in the source; their conditions may differ. Where two headings read alike, the source gives them in different places.

Regarding `Oc1ccc(O)cc1` [HQ, hydroquinone], the IC50 in experiment [1] is 32 ± 2 µM; on mushroom tyrosinase (monophenols), 33.5 µM. The maximal velocity (Vmax) in experiment [2] (HQ as substrate in the presence of H2O2 (100 mM)) was determined as 19 µmol/min/mg. Besides, the “activity of TyrBm with L-dopa and HQ higher than with L-dopa alone” value in experiment [2] (absorbance readings at 475 nm, 1 mM L-dopa, 0.1 mM HQ) is listed as 17%; in experiment [4] (oxygen consumption measurements, 0.1 mM HQ), 8%. Also, in experiment [2] (several hours, without H2O2 or L-dopa, visual, vs control without enzyme), the “TyrBm activity with HQ as a sole substrate” value is “low activity was visually observed”. The same compound came in with a Kd in experiment [3] of 9 ± 1 µM. For the same compound, the “dissociation constant higher than L-tyrosine” value in experiment [3] is 90 fold. Also, the “IC50 with L-dopa higher in comparison to L-tyrosine” value on mushroom tyrosinase is on record as 80 fold. Besides, the inhibition constant Ki was 83 µM at mushroom tyrosinase (competitive, ref 25 Chawla et al.) and 40 ± 10 µM in experiment [5] (substrate L-tyrosine). In experiment [4] (spectrophotometric and oxygen consumption recordings, 0.1 mM compound), the “effect on TyrBm activity on L-dopa” value is listed as “enhances activity”. Besides, the Inhibition mode entry in experiment [5] (diphenolase activity, substrate L-dopa) is on record as “no inhibition; also recorded: does not inhibit”; in experiment [5] (monophenolase activity, substrate L-tyrosine), “competitive”. Besides, the “Vmax (apparent, in presence of inhibitor)” value in experiment [5] (substrate L-tyrosine) was 9.0 µmol/min/mg and 9.0 ± 0.5 µmol/min/mg. In addition, in experiment [5] (substrate L-tyrosine), the “kcat (in presence of inhibitor)” value was 5.3 s⁻¹. The Km in experiment [6] was 250 µM.

With `N[C@@H](Cc1ccc(O)cc1)C(=O)O` [L-tyrosine], the Kd in experiment [3] (read-out: KD) is 0.1 ± 0.03 µM.

With `O=c1cccccc1O` [Tropolone], the Inhibition mode entry in the experiment on mushroom tyrosinase is reported as “mixed”.
